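These data come from cells grown in 96-well plates and exposed to compound for 48 hours at five concentrations. GI50 = concentration required for 50% inhibition of growth. At the TGI there is no net growth.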
What was measured:
Assay in all cases: DTP human tumour cell line panel, 48 h
HL-60(TB) leukemia = system: HL-60(TB) leukemia
M14 melanoma = system: M14 melanoma
NCI/ADR-RES ovarian = system: NCI/ADR-RES ovarian
NCI-H460 lung = system: NCI-H460 lung
MALME-3M melanoma = system: MALME-3M melanoma
BT-549 breast = system: BT-549 breast
UACC-257 melanoma = system: UACC-257 melanoma
SK-OV-3 ovarian = system: SK-OV-3 ovarian
A549 NSCLC = system: A549 NSCLC
UO-31 renal = system: UO-31 renal
A498 renal = system: A498 renal
EKVX NSCLC = system: EKVX NSCLC
U251 CNS = system: U251 CNS
IGROV1 ovarian = system: IGROV1 ovarian
UACC-62 melanoma = system: UACC-62 melanoma
SK-MEL-2 melanoma = system: SK-MEL-2 melanoma
MCF7 breast = system: MCF7 breast
ACHN renal = system: ACHN renal
HT29 colon = system: HT29 colon
K-562 leukemia = system: K-562 leukemia
HCC-2998 colon = system: HCC-2998 colon
MDA-MB-231 breast = system: MDA-MB-231 breast
PC-3 prostate = system: PC-3 prostate
TK-10 renal = system: TK-10 renal
SK-MEL-28 melanoma = system: SK-MEL-28 melanoma
DU-145 prostate = system: DU-145 prostate
OVCAR-3 ovarian = system: OVCAR-3 ovarian
T-47D breast = system: T-47D breast
HOP-62 NSCLC = system: HOP-62 NSCLC
OVCAR-8 ovarian = system: OVCAR-8 ovarian
NCI-H522 lung = system: NCI-H522 lung
CAKI-1 renal = system: CAKI-1 renal
SK-MEL-5 melanoma = system: SK-MEL-5 melanoma
LOX IMVI melanoma = system: LOX IMVI melanoma
KM12 colon = system: KM12 colon
MDA-MB-435 = system: MDA-MB-435
SNB-19 CNS = system: SNB-19 CNS
SF-539 CNS = system: SF-539 CNS
NCI-H23 lung = system: NCI-H23 lung
OVCAR-5 ovarian = system: OVCAR-5 ovarian
HOP-92 NSCLC = system: HOP-92 NSCLC
SF-268 CNS = system: SF-268 CNS
NCI-H226 lung = system: NCI-H226 lung
RXF 393 renal = system: RXF 393 renal
MOLT-4 leukemia = system: MOLT-4 leukemia
HCT-15 colon = system: HCT-15 colon
HS 578T breast = system: HS 578T breast
SW-620 colon = system: SW-620 colon
OVCAR-4 ovarian = system: OVCAR-4 ovarian
SNB-75 CNS = system: SNB-75 CNS
SF-295 CNS = system: SF-295 CNS
RPMI-8226 leukemia = system: RPMI-8226 leukemia
786-0 renal = system: 786-0 renal
CCRF-CEM leukemia = system: CCRF-CEM leukemia
SN12C renal = system: SN12C renal
COLO 205 colon = system: COLO 205 colon

COC1C(CO)OC(n2c3ccccc3c3c4c(c5c6ccccc6[nH]c5c32)C(=O)NC4=O)C(O)C1OC(=O)C(N)CCCCN (stereo not given)
GI50 (HL-60(TB) leukemia): 231 nM | TGI (HL-60(TB) leukemia): > 50000 nM | GI50 (M14 melanoma): 689 nM | TGI (M14 melanoma): > 11000 nM | GI50 (NCI/ADR-RES ovarian): > 50000 nM | TGI (NCI/ADR-RES ovarian): > 50000 nM | GI50 (NCI-H460 lung): 3640 nM | TGI (NCI-H460 lung): 27100 nM | GI50 (MALME-3M melanoma): 110 nM | TGI (MALME-3M melanoma): 946 nM | GI50 (BT-549 breast): 807 nM | TGI (BT-549 breast): 5620 nM | GI50 (UACC-257 melanoma): 648 nM | TGI (UACC-257 melanoma): > 10200 nM | GI50 (SK-OV-3 ovarian): 2110 nM | TGI (SK-OV-3 ovarian): > 15500 nM | GI50 (A549 NSCLC): 3270 nM | TGI (A549 NSCLC): > 50000 nM | GI50 (UO-31 renal): 997 nM | TGI (UO-31 renal): 5500 nM | GI50 (A498 renal): 917 nM | TGI (A498 renal): 3110 nM | GI50 (EKVX NSCLC): 1690 nM | TGI (EKVX NSCLC): 8860 nM | GI50 (U251 CNS): 282 nM | TGI (U251 CNS): > 11500 nM | GI50 (IGROV1 ovarian): 610 nM | TGI (IGROV1 ovarian): 4420 nM | GI50 (UACC-62 melanoma): 283 nM | TGI (UACC-62 melanoma): 1300 nM | GI50 (SK-MEL-2 melanoma): 1930 nM | TGI (SK-MEL-2 melanoma): 9910 nM | GI50 (MCF7 breast): 1130 nM | TGI (MCF7 breast): > 50000 nM | GI50 (ACHN renal): 713 nM | TGI (ACHN renal): 3510 nM | GI50 (HT29 colon): 2650 nM | TGI (HT29 colon): > 50000 nM | GI50 (K-562 leukemia): 414 nM | TGI (K-562 leukemia): > 50000 nM | GI50 (HCC-2998 colon): 1570 nM | TGI (HCC-2998 colon): 17800 nM | GI50 (MDA-MB-231 breast): 985 nM | TGI (MDA-MB-231 breast): 8000 nM | GI50 (PC-3 prostate): 1430 nM | TGI (PC-3 prostate): > 42300 nM | GI50 (TK-10 renal): 1810 nM | TGI (TK-10 renal): 14600 nM | GI50 (SK-MEL-28 melanoma): 2670 nM | TGI (SK-MEL-28 melanoma): > 18200 nM | GI50 (DU-145 prostate): 659 nM | TGI (DU-145 prostate): 4050 nM | GI50 (OVCAR-3 ovarian): 822 nM | TGI (OVCAR-3 ovarian): 5100 nM | TGI (T-47D breast): > 10300 nM | GI50 (HOP-62 NSCLC): 1090 nM | TGI (HOP-62 NSCLC): 17400 nM | GI50 (OVCAR-8 ovarian): 490 nM | TGI (OVCAR-8 ovarian): > 50000 nM | GI50 (NCI-H522 lung): 168 nM | TGI (NCI-H522 lung): 3550 nM | GI50 (CAKI-1 renal): 1210 nM | TGI (CAKI-1 renal): 11700 nM | GI50 (SK-MEL-5 melanoma): 208 nM | TGI (SK-MEL-5 melanoma): 838 nM | GI50 (LOX IMVI melanoma): 261 nM | GI50 (KM12 colon): 499 nM | TGI (KM12 colon): 4130 nM | GI50 (MDA-MB-435): 1070 nM | TGI (MDA-MB-435): 5040 nM | GI50 (SNB-19 CNS): 1310 nM | TGI (SNB-19 CNS): > 50000 nM | GI50 (SF-539 CNS): 165 nM | TGI (SF-539 CNS): 821 nM | GI50 (NCI-H23 lung): 2790 nM | TGI (NCI-H23 lung): > 50000 nM | GI50 (OVCAR-5 ovarian): 3120 nM | TGI (OVCAR-5 ovarian): > 50000 nM | GI50 (HOP-92 NSCLC): 1540 nM | TGI (HOP-92 NSCLC): 12900 nM | GI50 (SF-268 CNS): 379 nM | TGI (SF-268 CNS): 14500 nM | GI50 (NCI-H226 lung): 777 nM | TGI (NCI-H226 lung): 9590 nM | GI50 (RXF 393 renal): 2440 nM | TGI (RXF 393 renal): 14800 nM | GI50 (MOLT-4 leukemia): 178 nM | TGI (MOLT-4 leukemia): > 50000 nM | GI50 (HCT-15 colon): 8980 nM | TGI (HCT-15 colon): > 39500 nM | GI50 (HS 578T breast): 1930 nM | TGI (HS 578T breast): 12200 nM | GI50 (SW-620 colon): 198 nM | TGI (SW-620 colon): > 16900 nM | GI50 (OVCAR-4 ovarian): 3830 nM | TGI (OVCAR-4 ovarian): > 50000 nM | GI50 (SNB-75 CNS): 3620 nM | TGI (SNB-75 CNS): > 22800 nM | GI50 (SF-295 CNS): 1260 nM | TGI (SF-295 CNS): 7430 nM | GI50 (RPMI-8226 leukemia): > 15700 nM | TGI (RPMI-8226 leukemia): > 35500 nM | GI50 (786-0 renal): 653 nM | TGI (786-0 renal): > 21500 nM | GI50 (CCRF-CEM leukemia): 230 nM | TGI (CCRF-CEM leukemia): > 50000 nM | GI50 (SN12C renal): 405 nM | TGI (SN12C renal): 2360 nM | GI50 (COLO 205 colon): 1270 nM | TGI (COLO 205 colon): > 17200 nM
